From patent publication US20120201802A1, “METHOD FOR PRODUCING REDUCED COENZYME Q10, METHOD FOR STABILIZING SAME, AND COMPOSITION COMPRISING SAME” (Keneka Corporation, priority 2009, published 2012)

Assays:
[1] = Reduction of oxidized coenzyme Q10 in limonene (Example 2, Comparative Example 2); conditions: after reaction, oxidized CoQ10 0.1 g + plant extract 1.0 g or compound 0.69 mmol, 85° C., 16 hr, nitrogen atmosphere
Protocol: While the present invention is explained in more detail in the following by referring to Examples, the present invention is not limited to those Examples alone. Moreover, the purity of reduced coenzyme Q10, the weight ratio of reduced coenzyme Q10/oxidized coenzyme Q10, and the like in the Examples were measured by the following HPLC analysis. […] To conveniently indicate the weight ratio of reduced coenzyme Q10 and oxidized coenzyme Q10 in the present Example, the ratio of reduced coenzyme Q10 to the total amount of coenzyme Q10 (total amount of oxidized coenzyme Q10 and reduced coenzyme Q10) is shown in percentage as a “weight ratio of reduced coenzyme Q10”. For example, “the weight ratio of reduced coenzyme Q10 is 20%” means that the weight ratio of reduced coenzyme Q10 and oxidized coenzyme Q10 is 20/80. • (HPLC analysis conditions) • column; SYMMETRY C18 (manufactured by Waters) 250 mm (length) 4.6 mm (inner diameter), • mobile phase; C2H5OH:CH3OH=4:3 (v:v), • detection wavelength; 210 nm, • flow rate; 1 ml/min, • retention time of reduced coenzyme Q10; 9.1 min, • retention time of oxidized coenzyme Q10; 13.3 min. […]

[2] = Reduction of oxidized coenzyme Q10 in 99% ethanol (Example 1, Comparative Example 1); conditions: after reaction, oxidized CoQ10 0.1 g + plant extract 1.0 g (10-fold weight) or compound 0.69 mmol, 78° C., 16 hr, nitrogen atmosphere
Protocol: (§1) While the present invention is explained in more detail in the following by referring to Examples, the present invention is not limited to those Examples alone. Moreover, the purity of reduced coenzyme Q10, the weight ratio of reduced coenzyme Q10/oxidized coenzyme Q10, and the like in the Examples were measured by the following HPLC analysis. […] To conveniently indicate the weight ratio of reduced coenzyme Q10 and oxidized coenzyme Q10 in the present Example, the ratio of reduced coenzyme Q10 to the total amount of coenzyme Q10 (total amount of oxidized coenzyme Q10 and reduced coenzyme Q10) is shown in percentage as a “weight ratio of reduced coenzyme Q10”. For example, “the weight ratio of reduced coenzyme Q10 is 20%” means that the weight ratio of reduced coenzyme Q10 and oxidized coenzyme Q10 is 20/80. • (HPLC analysis conditions) • column; SYMMETRY C18 (manufactured by Waters) 250 mm (length) 4.6 mm (inner diameter), • mobile phase; C2H5OH:CH3OH=4:3 (v:v), • detection wavelength; 210 nm, • flow rate; 1 ml/min, • retention time of reduced coenzyme Q10; 9.1 min, • retention time of oxidized coenzyme Q10; 13.3 min.
Oxidized coenzyme Q10 crystal (0.1 g) and a component derived from a naturally-occurring substance (plant extract, 1.0 g, 10-fold weight) described in Table 1 were respectively added to 99% ethanol (15 g), and the mixture was stirred at 78° C. for 16 hr under a nitrogen atmosphere.
Oxidized coenzyme Q10 crystal (0.1 g, 0.12 mmol) and the compound described in Table 1 (0.69 mmol) were respectively added to 99% ethanol (15 g), and the mixture was stirred at 78° C. for 16 hr under a nitrogen atmosphere.

[3] = Reduction of oxidized coenzyme Q10 in Span 80/glycerol/Tween 80/MCT mixture (Example 3, Comparative Example 3); conditions: after reaction, oxidized CoQ10 0.1 g + plant extract 1.0 g or compound 0.69 mmol, 80° C., 16 hr, nitrogen atmosphere
Protocol: as §1
Oxidized coenzyme Q10 crystal (0.1 g) and a component derived from a naturally-occurring substance described in Table 3 (plant extract, 1.0 g, 10-fold weight) or a compound (0.69 mmol) were respectively added to a mixture of Span 80 (0.12 g), glycerol (0.09 g), Tween 80 (1.49 g) and MCT (0.43 g), and the mixture was stirred at 80° C. for 16 hr under a nitrogen atmosphere.

Compound | weight ratio of reduced coenzyme Q10 [1] [%] | weight ratio of reduced coenzyme Q10 [2] [%] | weight ratio of reduced coenzyme Q10 [3] [%]
O=C1O[C@H]([C@@H](O)CO)C([O-])=C1O.[Na+] [L-sodium ascorbate] | 1 |  | 
NC(=O)C1=CN([C@@H]2O[C@H](COP(=O)(O)OP(=O)(O)OC[C@H]3O[C@@H](n4cnc5c(N)ncnc54)[C@H](O)[C@@H]3O)[C@@H](O)[C@H]2O)C=CC1 [NADH] |  | 2 | 0
O=C(O)CCCC[C@@H](S)CCS [R-dihydrolipoic acid] | 1 |  | 
C[N+](C)(C)CC(O)CC(=O)[O-] (stereo not shown) [carnitine] |  | 0 | 0
CC1=C(/C=C/C(C)=C/C=C/C(C)=C/C=O)C(C)(C)CCC1 [retinal] |  | 4 | 3
Cc1c(C)c2c(c(C)c1O)CC[C@@](C)(CCC[C@H](C)CCC[C@H](C)CCCC(C)C)O2 [α-tocopherol] |  |  | 0
retinol acetate |  | 4 | 
